{"source": "patent US20240385187A1", "about": "“BI-[…] REPORTER PARTICLE AND METHODS FOR MAKING AND USING THE SAME” (The Trustees of Indiana University, priority 2021, published 2024)", "tested_on": "phagosomes of RAW264.7 macrophage cells", "assay": "Effect of V-ATPase inhibition on phagosome acidification and proteolysis, monitored in single phagosomes with Janus pH-proteolysis reporter particles", "format": "cell-based", "settings": "for duration of proteolysis: onset of proteolysis to start of Rhodamine 110 intensity decrease, without ConA 24±10", "method": "Dual color imaging started 5 minutes after Janus particle probes were added to cells and lasted for approximately 45 minutes. After particle internalization, the fluorescence intensity of the pH reporter increased first, followed by a similar intensity increase of the proteolysis reporter, indicating the progress of maturation (FIG. 6A). It was noted that some […] slowly diffused into the cell cytoplasm by the end of imaging, causing a slightly elevated fluorescence in the cell. This is expected because small dye molecules can passively diffuse across the phagosome membrane.\nConcanamycinA (ConA), a V-ATPase inhibitor, was added to disrupt acidification of phagosomes and its effect on proteolytic activities was monitored. […] The fluorescence decrease was caused by the continuous diffusion of Rhodamine 110, already in the phagosome lumen prior to the ConA addition, into the cell cytoplasm. After ConA addition, Rhodamine 110 lost by diffusion was not replaced by the generation of more.\nTo quantify the effect of ConA on proteolysis, duration of proteolysis was measured. In cells without ConA treatment, this was measured as the time from the onset of proteolysis (tproteolysis) to the start of the intensity plateau. In cells treated with ConA, this was measured as the time from the onset of proteolysis (tproteolysis) to the time when the Rhodamine 110 intensity started to decrease (FIG. 7C). Phagosome proteolysis in cells without ConA treatment lasted for 24±10 minutes on average (FIG. 7C). However, the duration of proteolysis was shorted to 16±5 minutes in the presence of 100 nM ConA and 10±4 minutes with 500 nM ConA.\nIn all phagosomes examined (N=21), proteolysis stopped within a short time after termination of acidification. […] This is consistent with the observation noted above that proteolysis started when the phagosome acidified to a threshold pH of 5.8±0.7. […] With the Janus reporter particle, it was identified that an acidic lumen is a prerequisite for the start of proteolytic activities in phagosomes, and their temporal relationship inside single phagosomes was quantitatively determined; data impossible to obtain by prior methods. Thus the bifunctional Janus pH-proteolysis reporter particle was able to detect both a disruption in phagosome acidification and a disruption in proteolytic activity inside a single phagosome caused by the presence of the V-ATPase inhibitor ConA.\nCarboxylate polystyrene particles (500 nm) were purchased from Polysciences (Warrington, PA, USA). CF™ 640R NHS ester (succinimidyl ester), fluorescent peptide Rhodamine 110, bis-(N-CBZ-L-phenylalanyl-L-arginine amide) dihydrochloride (Z-FR-R110) were purchased from Biotium (Fremont, CA, USA). Amine-functionalized polystyrene particle (3 μm), carboxylated fluorophores (500 nm, ex/em 580/605), Alexa Fluor 568 NHS ester (succinimidyl ester), Alexa Fluor 647 NHS ester (succinimidyl ester), pHrodo™ iFL Red STP Ester, EZ-Link™ NHS-Biotin, sulfo-NHS (N-succinimidyl ester), streptavidin, and lipopolysaccharides from Escherichia coli (LPS) were purchased from ThermoFisher Scientific (Waltham, MA, USA). Bovine serum albumin (BSA), trypsin, nigericin sodium salt, and immunoglobulin G (IgG) from rabbit plasma were purchased from MilliporeSigma (St. Louis, MO, USA). 1-(3-Dimethylaminopropyl)-3-ethylcarbodiimide hydrochloride (EDC) was purchased from Alfa Aesar (Haverhill, MA, USA). Biotin pentylamine was purchased from Soltec BioScience (Beveraly MA). Concanamycin A was purchased from Santa Cruz Biotechnology (Dallas, TX, USA). Raw 264.7 macrophage cells were purchased from ATCC (Manassas, VA, USA). Ringer's solution (pH=7.2, 10 mM HEPES, 10 mM glucose, 155 mM NaCl, 2 mM NaH2PO4, 5 mM KCl, 2 mM CaCl2, 1 mM MgCl2) was used for live-cell imaging. Potassium-rich solution (135 mM KCl, 2 mM […], 1.2 mM CaCl2, 0.8 mM MgSO4) was used for intracellular pH calibration. […]"}
{"smiles": "C/C=C/[C@H]1O[C@@](O)([C@@H](C)[C@H](O)[C@H](C)[C@H]2OC(=O)/C(OC)=C/C(C)=C/[C@@H](C)[C@@H](O)[C@@H](CC)[C@@H](O)[C@H](C)C/C(C)=C/C=C/[C@@H]2OC)C[C@@H](O[C@H]2C[C@@H](O)[C@H](OC(N)=O)[C@@H](C)O2)[C@@H]1C", "note": "[ConA, Concanamycin A]", "values": [{"measurement": "phagosome acidification and proteolytic activity", "setting": "100 nM ConA added to cells before the onset of acidification", "result": "failed to acidify or exhibit proteolytic activities"}, {"measurement": "duration of proteolysis", "setting": "100 nM ConA, N=11", "result": "16 ± 5", "unit": "min"}, {"measurement": "duration of proteolysis", "setting": "500 nM ConA, N=10", "result": "10 ± 4", "unit": "min"}, {"measurement": "phagosome proteolysis (Rhodamine 110 fluorescence)", "setting": "ConA added after acidification had started, within minutes after acidification stopped", "result": "phagosome proteolysis also stopped"}, {"measurement": "phagosome acidification", "setting": "ConA added to cells after acidification had started, lumen pH started to increase", "result": "stopped acidifying"}, {"measurement": "average pH of single phagosomes at the termination point of proteolysis", "setting": "ConA-treated cells, N=21 phagosomes", "result": "5.1±0.4"}]}
